In ChEMBL document CHEMBL1123713, “Synthesis and calcium channel antagonist activity of dialkyl 4- (dihydropyridinyl)-1,4-dihydro-2,6-dimethyl-3,5-pyridinecarboxylates” (J Med Chem, 1987):

Tests used:
[1] = target: Muscarinic acetylcholine receptor (Homo sapiens) (UniProt P20309+P08173+P11229+P08172+P08912); conditions: Cavia porcellus
Description: Inhibition of muscarinic receptor mediated [Ca2+] dependent contraction of guinea pig ileal longitudinal smooth muscle.

Cavia porcellus = species: Cavia porcellus; test: Negative logarithm antagonist concentration causing 50% inhibition of tonic CD response in the guinea pig ileal longitudinal smooth muscle preparation; type: functional, Muscle tissue
[2] = target: Voltage-gated L-type calcium channel (Homo sapiens, UniProt Q13936+Q13698+Q01668+O60840); test: Negative log antagonist concentration causing 50% displacement of [3H]nifedipine from guinea pig ileal smooth muscle membrane.; type: tissue-based, Cavia porcellus, Muscle tissue; conditions: target entry is the homologue from another species
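Wherever ID50 is given: blockade of Ca2+-dependent contraction driven by muscarinic receptors in longitudinal smooth muscle strips of guinea pig ileum.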

| Structure (SMILES) | ID50 [1] [µM] | -Log ID50 (Cavia porcellus) | -Log KD50 [2] |
| --- | --- | --- | --- |
| CC1=NC(C)=C(C(=O)OCC(C)C)C(C2=CCN(C(=O)OC(C)(C)C)C=C2)/C1=C(\O)OCC(C)C (stereo not given) | 2.03 | – | – |
| COC(=O)N1C=CC=C(C2C(C(=O)OC(C)C)=C(C)N=C(C)/C2=C(/O)OC(C)C)C1 (stereo not given) | 0.131 | – | – |
| COC(=O)N1C=CC=C(C2C(C(=O)OCC(C)C)=C(C)N=C(C)/C2=C(/O)OC)C1 (stereo not given) | 0.031 | – | – |
| COC(=O)N1C=CC(C2C(C#N)=C(C)NC(C)=C2C#N)=CC1 | 67.5 | – | – |
| CO/C(O)=C1\C(C)=NC(C)=C(C(=O)OC(C)C)C1C1=CC=CN(C(=O)OC(C)(C)C)C1 (stereo not given) | 0.237 | – | – |
| COC(=O)N1C=CC(C2C(C(=O)OCC(C)C)=C(C)N=C(C)/C2=C(/O)OC)=CC1 (stereo not given) | 1.76 | – | – |
| COC(=O)C1=C(C)N=C(C)/C(=C(/O)OC)C1C1=CC=CN(C(=O)OC)C1 (stereo not given) | 0.589 | 6.23 | – |
| CCOC(=O)C1=C(C)N=C(C)/C(=C(/O)OCC)C1C1=CC=CN(C(=O)OC)C1 (stereo not given) | 0.18 | – | – |
| COC(=O)C1=C(C)N=C(C)/C(=C(/O)OC)C1C1=CC=CN(C(=O)Oc2ccccc2)C1 (stereo not given) | 3.69 | 5.43 | – |
| COC(=O)N1C=CC(C2C(C(=O)OC(C)C)=C(C)N=C(C)/C2=C(/O)OC(C)C)=CC1 (stereo not given) | 1.01 | – | – |
| CC1=NC(C)=C(C(=O)OCC(C)C)C(C2=CC=CN(C(=O)OC(C)(C)C)C2)/C1=C(\O)OCC(C)C (stereo not given) | 3.42 | – | – |
| CC1=NC(C)=C(C(=O)OCC(C)C)C(C2=CCN(C(=O)Oc3ccccc3)C=C2)/C1=C(\O)OCC(C)C (stereo not given) | 0.51 | – | – |
| COC(=O)N1C=CC(C2C(C(=O)OCC(C)C)=C(C)N=C(C)/C2=C(/O)OCC(C)C)=CC1 (stereo not given) | 1.72 | – | – |
| COC(=O)C1=C(C)N=C(C)/C(=C(/O)OC)C1C1=CCN(C(=O)OC)C=C1 (stereo not given) | 7.47 | – | – |
| CC1=NC(C)=C(C(=O)OC(C)C)C(C2=CC=CN(C(=O)OC(C)(C)C)C2)/C1=C(\O)OC(C)C (stereo not given) | 0.114 | – | – |
| CC1=NC(C)=C(C(=O)OC(C)C)C(C2=CC=CN(C(=O)Oc3ccccc3)C2)/C1=C(\O)OC(C)C (stereo not given) | 1.67 | 5.78 | – |

| Structure (SMILES) | ID50 [1] [µM] | -Log ID50 (Cavia porcellus) | -Log KD50 [2] |
| --- | --- | --- | --- |
| COC(=O)N1C=CC=C(C2C(C(=O)OCC(C)C)=C(C)N=C(C)/C2=C(/O)OCC(C)C)C1 (stereo not given) | 0.771 | – | – |
| CCOC(=O)C1=C(C)N=C(C)/C(=C(/O)OCC)C1C1=CC=CN(C(=O)OC(C)(C)C)C1 (stereo not given) | 0.672 | – | – |
| COC(=O)C1=C(C)NC(C)=C(C(=O)OC)C1c1ccccc1[N+](=O)[O-] [NIFEDIPINE] | – | – | 9.08 |
| CO/C(O)=C1\C(C)=NC(C)=C(C(=O)OCC(C)C)C1C1=CCN(C(=O)OC(C)(C)C)C=C1 (stereo not given) | 1.18 | – | – |
| CCOC(=O)C1=C(C)N=C(C)/C(=C(/O)OCC)C1C1=CCN(C(=O)OC)C=C1 (stereo not given) | 2.43 | – | – |
| CC1=NC(C)=C(C(=O)OCC(C)C)C(C2=CC=CN(C(=O)Oc3ccccc3)C2)/C1=C(\O)OCC(C)C (stereo not given) | 6.46 | – | – |
| CO/C(O)=C1\C(C)=NC(C)=C(C(=O)OCC(C)C)C1C1=CC=CN(C(=O)OC(C)(C)C)C1 (stereo not given) | 0.128 | – | – |
| COC(=O)N1C=CC=C(C2C(C#N)=C(C)N=C(C)/C2=C(/O)OC)C1 (stereo not given) | 51.6 | – | – |
| COC(=O)C1=C(C)N=C(C)/C(=C(/O)OC)C1C1=CC=CN(C(=O)OC(C)(C)C)C1 (stereo not given) | 5.77 | 5.24 | – |
| CO/C(O)=C1\C(C)=NC(C)=C(C(=O)OC(C)C)C1C1=CC=CN(C(=O)Oc2ccccc2)C1 (stereo not given) | 0.9 | – | – |
| CCOC(=O)C1=C(C)N=C(C)/C(=C(/O)OCC)C1C1=CC=CN(C(=O)Oc2ccccc2)C1 (stereo not given) | 0.865 | – | – |
| COC(=O)N1C=CC=C(C2C(C#N)=C(C)NC(C)=C2C#N)C1 | 33.9 | – | – |
| CO/C(O)=C1\C(C)=NC(C)=C(C(=O)OCC(C)C)C1C1=CCN(C(=O)Oc2ccccc2)C=C1 (stereo not given) | 81 | – | – |
| COC(=O)N1C=CC=C(C2C(C(=O)OC(C)C)=C(C)N=C(C)/C2=C(/O)OC)C1 (stereo not given) | 0.158 | – | – |
| CO/C(O)=C1\C(C)=NC(C)=C(C(=O)OCC(C)C)C1C1=CC=CN(C(=O)Oc2ccccc2)C1 (stereo not given) | 0.045 | – | – |
